Data from ChEMBL document CHEMBL5500393, “Discovery and Optimization of Novel SaFabI Inhibitors as Specific Therapeutic Agents for MRSA Infection” (J Med Chem, 2024).

Experiments:
[1] = biological target: T1, Enoyl-[acyl-carrier-protein] reductase [NADPH] FabI (Staphylococcus aureus) (UniProt Q6GI75); assay: Inhibition of N-terminal his 6 tagged Staphylococcus aureus Fabi (1 to […] residues) expressed in Escherichia coli BL21 at 1 uM incubated for 30 mins in presence of NADPH by fluorescence based microplate reader analysis relative to control
T1 sequence (whole entry): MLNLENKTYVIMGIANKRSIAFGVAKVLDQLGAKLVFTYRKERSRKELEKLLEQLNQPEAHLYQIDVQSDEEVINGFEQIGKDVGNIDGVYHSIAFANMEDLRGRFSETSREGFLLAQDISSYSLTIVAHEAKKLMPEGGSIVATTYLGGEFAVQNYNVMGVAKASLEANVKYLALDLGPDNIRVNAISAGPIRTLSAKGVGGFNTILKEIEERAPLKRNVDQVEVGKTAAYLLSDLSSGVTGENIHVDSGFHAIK

Staphylococcus aureus [2] = assay: Antimicrobial activity against methicillin-susceptible Staphylococcus aureus ATCC25923 measured after 24 hrs by CLSI protocol based microdilution method; assay type: functional
Enterococcus faecalis = assay: Antimicrobial activity against Enterococcus faecalis ATCC29212 measured after 24 hrs by CLSI protocol based microdilution method; assay type: functional
Acinetobacter baumannii = assay: Antimicrobial activity against Acinetobacter baumannii ATCC19606 measured after 24 hrs by CLSI protocol based microdilution method; assay type: functional
Staphylococcus aureus [3] = assay: Antimicrobial activity against […] Staphylococcus aureus ATCC33591 measured after 24 hrs by CLSI protocol based microdilution method; assay type: functional
Escherichia coli = assay: Antimicrobial activity against Escherichia coli ATCC25922 measured after 24 hrs by CLSI protocol based microdilution method; assay type: functional
Enterococcus faecium = assay: Antimicrobial activity against Enterococcus faecium ATCC19434 measured after 24 hrs by CLSI protocol based microdilution method; assay type: functional
Staphylococcus aureus [4] = assay: Antimicrobial activity against […] Staphylococcus aureus USA300 measured after 24 hrs by CLSI protocol based microdilution method; assay type: functional
Candida albicans = assay: Antimicrobial activity against Candida albicans SC5314 measured after 48 hrs by CLSI protocol based microdilution method; assay type: functional
Pseudomonas aeruginosa = assay: Antimicrobial activity against Pseudomonas aeruginosa PAO1 measured after 24 hrs by CLSI protocol based microdilution method; assay type: functional
Staphylococcus aureus [5] = assay: Antimicrobial activity against methicillin-susceptible Staphylococcus aureus ATCC29213 measured after 24 hrs by CLSI protocol based microdilution method; assay type: functional
Staphylococcus aureus [6] = assay: Antimicrobial activity against […] Staphylococcus aureus NRS271 measured after 24 hrs by CLSI protocol based microdilution method; assay type: functional
[7] = biological target: T1, Enoyl-[acyl-carrier-protein] reductase [NADPH] FabI (Staphylococcus aureus); assay: Inhibition of N-terminal his 6 tagged Staphylococcus aureus Fabi (1 to […] residues) expressed in Escherichia coli BL21 at 10 uM incubated for 30 mins in presence of NADPH by fluorescence based microplate reader analysis relative to control
Staphylococcus aureus [8] = assay: Antimicrobial activity against […] Staphylococcus aureus ATCC43300 measured after 24 hrs by CLSI protocol based microdilution method; assay type: functional

| Structure (SMILES) | inhibition [1] [%] | MIC (Staphylococcus aureus [2]) [µg/mL] | MIC (Enterococcus faecalis) [µg/mL] | MIC (Acinetobacter baumannii) [µg/mL] | MIC (Staphylococcus aureus [3]) [µg/mL] | MIC (Escherichia coli) [µg/mL] | MIC (Enterococcus faecium) [µg/mL] | MIC (Staphylococcus aureus [4]) [µg/mL] | MIC (Candida albicans) [µg/mL] | MIC (Pseudomonas aeruginosa) [µg/mL] | MIC (Staphylococcus aureus [5]) [µg/mL] | MIC (Staphylococcus aureus [6]) [µg/mL] | inhibition [7] [%] | MIC (Staphylococcus aureus [8]) [µg/mL] |
| --- | --- | --- | --- | --- | --- | --- | --- | --- | --- | --- | --- | --- | --- | --- |
| Cn1c(C2CC(=O)N(c3ccc4ccccc4c3)C2)nc2ccccc21 (stereo not given) | 2.8 | > 32 | > 32 | > 32 | > 32 | > 32 | > 32 | > 32 | > 32 | > 32 | > 32 | > 32 | 51.7 | > 32 |
| O=C1CC(c2nc3ccccc3[nH]2)CN1c1cccc2ccccc12 (stereo not given) | 3.2 | > 32 | > 32 | > 32 | > 32 | > 32 | > 32 | > 32 | > 32 | > 32 | > 32 | > 32 | 15.4 | > 32 |
| Cc1cccc(NC(=O)c2nc3ccccc3n2C)c1C | 5.2 | > 32 | > 32 | > 32 | > 32 | > 32 | > 32 | > 32 | > 32 | > 32 | > 32 | > 32 | 8.9 | > 32 |
| Cc1cccc(NC(=O)CCNC(=O)CCc2nc3ccccc3n2C)c1C | 6.9 | > 32 | > 32 | > 32 | > 32 | > 32 | > 32 | > 32 | > 32 | > 32 | > 32 | > 32 | 33.2 | > 32 |
| Cn1ccc(N2CC(c3nc4ccccc4n3C)CC2=O)n1 (stereo not given) | 5.1 | > 32 | > 32 | > 32 | > 32 | > 32 | > 32 | > 32 | > 32 | > 32 | > 32 | > 32 | 4.3 | > 32 |
| Cn1c(C2CC(=O)N(c3ccc(N4CCOCC4)cc3)C2)nc2ccccc21 (stereo not given) | 8.2 | > 32 | > 32 | > 32 | > 32 | > 32 | > 32 | > 32 | > 32 | > 32 | > 32 | > 32 | 7.7 | > 32 |
| Cn1c(C2CC(=O)N(C3CCCCC3)C2)nc2ccccc21 (stereo not given) | 3.2 | > 32 | > 32 | > 32 | > 32 | > 32 | > 32 | > 32 | > 32 | > 32 | > 32 | > 32 | 43.7 | > 32 |
| Cn1c(CCC(=O)Nc2ccccc2)nc2ccccc21 | 7.7 | > 32 | > 32 | > 32 | > 32 | > 32 | > 32 | > 32 | > 32 | > 32 | > 32 | > 32 | 7.8 | > 32 |
| Cn1c(C2CC(=O)N(CCc3ccccc3)C2)nc2ccccc21 (stereo not given) | 5.8 | > 32 | > 32 | > 32 | > 32 | > 32 | > 32 | > 32 | > 32 | > 32 | > 32 | > 32 | 3.9 | > 32 |
| Cn1c(C2CC(=O)N(c3ccccc3-c3ccccc3)C2)nc2ccccc21 (stereo not given) | 2.3 | > 32 | > 32 | > 32 | > 32 | > 32 | > 32 | > 32 | > 32 | > 32 | > 32 | > 32 | 5.8 | > 32 |
